What was measured:
[1] = system: isolated precontracted guinea pig ileum; test: Isolated precontracted guinea pig ileum preparations in tissue bath
Procedure: Following the procedures of the previous example, the effects of retigabine on isolated precontracted guinea pig ileum preparations were studied. Sections of ileum were isolated from male guinea pigs and suspended in a tissue bath. One end of the tissue was anchored to the bottom of the bath, and the other end to a force transducer. Tissues were contracted with either 20 mM KCl or 200 nM carbachol. The KCNQ channel agonist retigabine was added to the tissue baths in increasing concentrations.

[2] = system: isolated carbachol contracted rat bladder strips; test: Relaxation of isolated carbachol contracted rat bladder strips; details: for effect on retigabine-induced relaxation of bladder strips: M-current blockers added after retigabine
Procedure: (§1) Using quantitative rtPCR, the expression of KCNQ1, KCNQ3 and KCNQ5 potassium channels was identified in the rat urinary bladder. […] To further probe M-current activity in the bladder, retigabine (10 μM, M-current agonist) was tested in isolated bladder smooth muscle cells using standard patch-clamp techniques. […] This hyperpolarization was reversed by the addition of linopirdine (50 μM an M-current antagonist) to the tissue bath. […] This relaxation was reversed by the M-current blockers linopirdine and XE-991.

[3] = system: isolated bladder smooth muscle cells; test: Patch-clamp of isolated bladder smooth muscle cells (M-current activity); format: cell-based, rat
Procedure: as §1

[4] = molecular target: T1, KCNQ2/3 potassium channels (Homo sapiens, UniProt O43525+O43526); details: oocytes; cited from earlier work
T1 construct: host or cells: oocytes (heterologous expression, as described in the cited article)
T1 sequence (O43526 whole entry): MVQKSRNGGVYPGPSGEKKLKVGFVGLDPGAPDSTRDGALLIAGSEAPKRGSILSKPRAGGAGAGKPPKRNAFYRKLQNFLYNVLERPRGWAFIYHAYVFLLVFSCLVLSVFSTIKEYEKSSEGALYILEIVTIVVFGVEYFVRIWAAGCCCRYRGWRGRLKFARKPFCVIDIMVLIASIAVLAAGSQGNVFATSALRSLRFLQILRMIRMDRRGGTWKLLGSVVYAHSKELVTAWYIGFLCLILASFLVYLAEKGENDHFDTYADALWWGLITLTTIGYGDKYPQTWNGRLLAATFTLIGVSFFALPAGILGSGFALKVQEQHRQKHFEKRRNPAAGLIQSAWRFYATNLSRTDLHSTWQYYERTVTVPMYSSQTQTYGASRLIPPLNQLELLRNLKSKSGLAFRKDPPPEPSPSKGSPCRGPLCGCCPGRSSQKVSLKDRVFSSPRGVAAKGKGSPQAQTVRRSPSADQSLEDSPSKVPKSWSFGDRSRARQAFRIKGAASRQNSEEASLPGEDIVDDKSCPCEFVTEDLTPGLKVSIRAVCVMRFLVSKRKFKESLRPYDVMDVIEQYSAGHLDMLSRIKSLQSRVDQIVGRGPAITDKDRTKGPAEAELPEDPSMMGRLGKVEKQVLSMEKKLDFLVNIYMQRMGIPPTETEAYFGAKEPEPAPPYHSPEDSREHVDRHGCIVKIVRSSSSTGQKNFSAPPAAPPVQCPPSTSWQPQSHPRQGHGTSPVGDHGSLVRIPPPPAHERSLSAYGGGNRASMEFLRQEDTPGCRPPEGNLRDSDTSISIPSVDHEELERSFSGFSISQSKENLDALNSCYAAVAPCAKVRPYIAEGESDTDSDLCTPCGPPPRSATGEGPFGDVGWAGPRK
T1 sequence (O43525 whole entry): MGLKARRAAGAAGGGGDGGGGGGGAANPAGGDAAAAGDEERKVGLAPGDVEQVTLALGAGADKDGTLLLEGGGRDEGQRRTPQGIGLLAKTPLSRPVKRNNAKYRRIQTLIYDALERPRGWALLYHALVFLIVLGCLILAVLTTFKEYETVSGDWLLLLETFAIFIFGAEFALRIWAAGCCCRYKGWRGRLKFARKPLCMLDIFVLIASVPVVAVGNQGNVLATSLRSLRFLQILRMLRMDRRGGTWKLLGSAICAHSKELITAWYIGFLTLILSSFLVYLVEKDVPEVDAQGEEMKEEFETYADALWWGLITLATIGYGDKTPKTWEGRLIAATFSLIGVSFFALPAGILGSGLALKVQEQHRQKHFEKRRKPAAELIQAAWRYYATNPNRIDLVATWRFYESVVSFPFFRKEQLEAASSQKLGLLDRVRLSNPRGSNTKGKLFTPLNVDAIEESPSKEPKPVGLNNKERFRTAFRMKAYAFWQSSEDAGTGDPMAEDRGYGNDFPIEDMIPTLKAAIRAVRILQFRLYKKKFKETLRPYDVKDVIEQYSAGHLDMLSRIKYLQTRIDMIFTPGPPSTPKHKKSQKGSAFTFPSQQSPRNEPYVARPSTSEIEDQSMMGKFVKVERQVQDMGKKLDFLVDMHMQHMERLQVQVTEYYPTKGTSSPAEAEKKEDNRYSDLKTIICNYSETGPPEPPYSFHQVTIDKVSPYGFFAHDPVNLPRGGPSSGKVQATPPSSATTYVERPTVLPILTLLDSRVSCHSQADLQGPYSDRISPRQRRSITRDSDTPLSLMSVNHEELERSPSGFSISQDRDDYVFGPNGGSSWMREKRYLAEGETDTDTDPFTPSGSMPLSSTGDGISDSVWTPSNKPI

Row | SMILES | effect on responses to retigabine in ileum ([1]; both KCl and carbachol contracted tissues) | effect on retigabine-induced relaxation of bladder strips [2] | effect on retigabine-induced hyperpolarization ([3]; linopirdine 50 μM added to the tissue bath) | inhibition of contraction of ileum ([1]; tissues contracted with 20 mM KCl or 200 nM carbachol, increasing concentrations) | channel deactivation [4] | rate of channel activation [4] | voltage dependence of channel activation [4] | IC50 ([2]; Rattus norvegicus, read-out: IC50 of relaxation of carbachol contracted bladder strips) | membrane hyperpolarization ([3]; retigabine 10 μM, n=5) | outward current insensitive to iberiotoxin ([3]; retigabine 10 μM, standard patch-clamp)
1 | O=C1c2ccccc2C(Cc2ccncc2)(Cc2ccncc2)c2ccccc21 [XE-991] | antagonized | reversed | – | – | – | – | – | – | – | –
2 | O=C1N(c2ccccc2)c2ccccc2C1(Cc1ccncc1)Cc1ccncc1 [linopirdine] | – | reversed | reversed | – | – | – | – | – | – | –
3 | CCOC(=O)Nc1ccc(NCc2ccc(F)cc2)cc1N [retigabine, N-[2-amino-4-(4-fluorobenzylamino)-phenyl]carbamic acid ethyl ester] | – | – | – | concentration-dependent inhibition of contraction | slows channel deactivation | increases the rate of channel activation | shifts the voltage dependence of channel activation to more hyperpolarized membrane potentials | 3.5 ± 0.9 µM | 17.8±3.0 mV | significantly increased

— patent publication US7015242B2, “Methods for treating hyperactive gastrointestinal motility” (Wyeth, priority 2001, dated 2006)
